Laboratory results reported in patent publication US20260138958A1, “SUBSTITUTED N-PHENYLURACILS AND SALTS THEREOF, AND USE THEREOF AS HERBICIDAL ACTIVE SUBSTANCES” (Bayer Aktiengesellschaft, priority 2022, published 2026).

Assays:
Type in all cases: in vivo
[1] = test system: harmful plants; assay: Post-emergence herbicidal action, summary statements over several weeds; conditions: 20 g or less per hectare, ALOMY, ECHCG, AVEFA, VERPE
Method: (§1) Seeds of monocotyledonous and dicotyledonous weeds and crop plants were placed in sandy loam in plastic or wood-fibre pots, covered with soil and cultivated in a greenhouse under controlled growth conditions. 2 to 3 weeks after sowing, the test plants were treated at the one-leaf stage. The compounds of the invention, formulated in the form of wettable powders (WP) or as emulsion concentrates (EC), were then sprayed onto the green parts of the plants as aqueous suspension or emulsion with addition of 0.5% additive at a water application rate of 600 l/ha (converted). After the test plants had been kept in the greenhouse under optimum growth conditions for about 3 weeks, the activity of the preparations was rated visually in comparison to untreated controls. For example, 100% activity=the plants have died, 0% activity=like control plants.

[2] = test system: Avena fatura (AVEFA); assay: Comparative post-emergence herbicidal action, greenhouse pot test; conditions: Table B3 comparison, application rate 20 g/ha
Method: as §1
Tables B1-B5 below show the effects of inventive compounds (I.7-12, I.7-14, I.7-16) that have been obtained by the test method specified above on various harmful plants at an application rate corresponding to 20 g/ha or lower by comparison with structurally similar compounds known from the literature (“a-27”, “a-29”, disclosed in WO2002/098227).

[3] = test system: Zea mays (ZEAMX); assay: Post-emergence crop plant compatibility, greenhouse pot test; conditions: Zea mays, in vivo
Summary of the method: (§2)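 Crops grown in sandy loam in the greenhouse were sprayed post-emergence at the one-leaf stage, 2–3 weeks after sowing, with WP or EC formulations plus 0.5% additive at 600 l/ha water. Damage was rated visually after about 3 weeks against untreated controls (0% = like control, 100% = dead).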

[4] = test system: Triticum aestivum (TRZAS); assay: as above; conditions: Triticum aestivum, in vivo
Summary of the method: as §2

[5] = test system: Oryza sativa (ORYSA); assay: as above; conditions: Oryza sativa, in vivo
Summary of the method: as §2

[6] = test system: crop plants; assay: Post-emergence crop plant compatibility, summary statements over several crops; conditions: 5 g or less per hectare, ORYSA, ZEAMX, TRZAS
Method: as §1
The observed effects on selected crop plants are reported here in comparison to the untreated controls (values in %).

[7] = test system: Veronica persica (VERPE); assay: Post-emergence herbicidal action, greenhouse pot test
Summary of the method: (§3)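 Weeds grown in sandy loam in the greenhouse and sprayed post-emergence at the one-leaf stage, 2–3 weeks after sowing. Compound applied as WP or EC in water with 0.5% additive at 600 l/ha. Damage rated visually about 3 weeks later against untreated controls (0% = like control, 100% = dead).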

[8] = test system: Alopecurus myosuroides (ALOMY); assay: as above
Summary of the method: as §3

[9] = test system: Setaria viridis (SETVI); assay: as above
Summary of the method: as §3

[10] = test system: Amaranthus retroflexus (AMARE); assay: as above; conditions: Amaranthus retroflexus, 504 h
Summary of the method: as §3

[11] = test system: Digitaria sanguinalis (DIGSA); assay: as above
Summary of the method: as §3

[12] = test system: Abutilon theophrasti (ABUTH); assay: as above
Summary of the method: as §3

[13] = test system: Polygonum convolvulus (POLCO); assay: as above; conditions: Fallopia convolvulus, 504 h
Summary of the method: as §3

[14] = test system: Echinochloa crus-galli (ECHCG); assay: as above
Summary of the method: as §3

[15] = test system: Viola tricolor (VIOTR); assay: as above
Summary of the method: as §3

[16] = test system: Tripleurospermum inodorum (MATIN); assay: as above; conditions: Tripleurospermum inodorum, 504 h, 20 g/ha, read-out: Post-emergence effect at 20 g/ha against MATIN in %
Summary of the method: as §3

[17] = test system: Pharbitis purpurea (PHBPU); assay: as above
Summary of the method: as §3

Cn1c(C(F)(F)F)cc(=O)n(-c2cc(Oc3ccccc3OCC(=O)OCC3CCCC3)c(Cl)cc2F)c1=O [I.7-12]
herbicidal efficacy by comparison with a-27, a-29 or a generically encompassed structure (WO2002/098227) [1]: distinctly improved herbicidal efficacy
AVEFA (efficacy in %) [2]: 70%
Post-emergence effect at 1.25 g/ha against ZEAMX in % [3]: 10%
Post-emergence effect at 5 g/ha against ZEAMX in % [3]: 20%
Post-emergence effect at 1.25 g/ha against TRZAS in % [4]: 10%
Post-emergence effect at 20 g/ha against TRZAS in % [4]: 20%
Post-emergence effect at 1.25 g/ha against ORYSA in % [5]: 0%
Post-emergence effect at 5 g/ha against ORYSA in % [5]: 20%
compatibility with crop plants by comparison with a-27, a-29 or a generically encompassed structure (WO2002/098227) [6]: distinctly improved compatibility
Post-emergence effect at 1.25 g/ha against VERPE in % ([7]; 1.25 g/ha): 90%
pest or weed control at 5 g/ha ([7]; Veronica persica, 504 h, 5 g/ha, read-out: Post-emergence effect at 5 g/ha against VERPE in %): 100%
pest or weed control at 20 g/ha ([7]; Veronica persica, 504 h, 20 g/ha, read-out: Post-emergence effect at 20 g/ha against VERPE in %): 100%
pest or weed control at 20 g/ha ([8]; Alopecurus myosuroides, 504 h, 20 g/ha, read-out: Post-emergence effect at 20 g/ha against ALOMY in %): 100%
ALOMY (efficacy in %) ([8]; Table B1 comparison, application rate 20 g/ha): 100%
Post-emergence effect at 1.25 g/ha against SETVI in % ([9]; 1.25 g/ha): 80%
pest or weed control at 5 g/ha ([9]; Setaria viridis, 504 h, 5 g/ha, read-out: Post-emergence effect at 5 g/ha against SETVI in %): 100%
pest or weed control at 20 g/ha ([9]; Setaria viridis, 504 h, 20 g/ha, read-out: Post-emergence effect at 20 g/ha against SETVI in %): 100%
pest or weed control at 1.25 g/ha ([10]; 1.25 g/ha, read-out: Post-emergence effect at 1.25 g/ha against AMARE in %): 100%
pest or weed control at 5 g/ha ([10]; 5 g/ha, read-out: Post-emergence effect at 5 g/ha against AMARE in %): 100%
pest or weed control at 20 g/ha ([10]; 20 g/ha, read-out: Post-emergence effect at 20 g/ha against AMARE in %): 100%
Post-emergence effect at 1.25 g/ha against DIGSA in % ([11]; 1.25 g/ha): 100%
Post-emergence effect at 5 g/ha against DIGSA in % ([11]; 5 g/ha): 100%
Post-emergence effect at 20 g/ha against DIGSA in % ([11]; 20 g/ha): 100%
Post-emergence effect at 1.25 g/ha against ABUTH in % ([12]; 1.25 g/ha): 90%
pest or weed control at 5 g/ha ([12]; Abutilon theophrasti, 504 h, 5 g/ha, read-out: Post-emergence effect at 5 g/ha against ABUTH in %): 100%
pest or weed control at 20 g/ha ([12]; Abutilon theophrasti, 504 h, 20 g/ha, read-out: Post-emergence effect at 20 g/ha against ABUTH in %): 100%
pest or weed control at 5 g/ha ([13]; 5 g/ha, read-out: Post-emergence effect at 5 g/ha against POLCO in %): 80%
pest or weed control at 20 g/ha ([13]; 20 g/ha, read-out: Post-emergence effect at 20 g/ha against POLCO in %): 100%
Post-emergence effect at 5 g/ha against ECHCG in % ([14]; 5 g/ha): 90%
pest or weed control at 20 g/ha ([14]; Echinochloa crus-galli, 504 h, 20 g/ha, read-out: Post-emergence effect at 20 g/ha against ECHCG in %): 100%
ECHCG (efficacy in %) ([14]; Table B2 comparison, application rate 1.25 g/ha): 60%
Post-emergence effect at 1.25 g/ha against VIOTR in % ([15]; 1.25 g/ha): 100%
Post-emergence effect at 5 g/ha against VIOTR in % ([15]; 5 g/ha): 100%
pest or weed control at 20 g/ha ([15]; Viola tricolor, 504 h, 20 g/ha, read-out: Post-emergence effect at 20 g/ha against VIOTR in %): 100%
pest or weed control at 20 g/ha [16]: 100%
Post-emergence effect at 1.25 g/ha against PHBPU in % ([17]; 1.25 g/ha): 80%
pest or weed control at 5 g/ha ([17]; Ipomoea purpurea, 504 h, 5 g/ha, read-out: Post-emergence effect at 5 g/ha against PHBPU in %): 100%
pest or weed control at 20 g/ha ([17]; Ipomoea purpurea, 504 h, 20 g/ha, read-out: Post-emergence effect at 20 g/ha against PHBPU in %): 100%
